Laboratory results published in publication PMC3443097, “Evolution of Bombesin Conjugates for Targeted PET Imaging of Tumors” (PLoS ONE, 2012).
One block for each molecule: values may come before it. Square brackets hold non-standard residues; d marks the D form. Peptide text beside a SMILES is read from it. * marks the point of attachment. CPTA = 4-(1,4,8,11-tetraazacyclotetradec-1-yl)-methyl benzoic acid chelator, O=C(c1ccc(CN2CCCNCCNCCCNCC2)cc1)*; DOTA = O=C(O)CN1CCN(CC(=O)O)CCN(CC(=O)*)CCN(CC(=O)O)CC1; Nle = CCCC[C@H](N)C(=O)O; GABA = NCCCC(=O)O; βAla = NCCC(=O)O

Tests used:
mouse GRP receptor = target: T1, mouse GRP receptor (Mus musculus, UniProt P21729); assay: Competitive binding vs [^125I-Tyr^4] BN, autoradiography of mouse pancreas tissue sections; conditions: displacement of [^125I-Tyr^4] BN, ± SD, number of independent studies in brackets
T1 construct: mouse pancreas tissue (expressing mouse GRP receptor); from tissue; host or cells: mouse pancreas tissue sections
Description: (§1) Using [^125I-Tyr^4] BN as a GRP receptor preferring ligand, the IC50 values of the ^natCu/^natIn-labeled peptides were measured by in vitro autoradiography of sections of human prostate cancer tissue overexpressing GRP receptors or mouse pancreas tissue expressing mouse GRP receptors. The prostate cancer tissues originated from samples investigated previously or collected prospectively at the Institute of Pathology of the University of Berne in accordance with international ethical guidelines, including informed written consent and approval by the institutional review board. The binding affinity profile of [Cu^II]-BZH7 for three bombesin receptor subtypes was determined by using [^125I-D-Tyr^6, βAla^11, Phe^13, Nle^14] BN(6–14) as an universal radioligand. The procedures were described in detail previously.
(§2) Competitive binding assays were performed with human GRP receptor-positive cancerous tissue and mouse pancreas tissue (expressing mouse GRP receptor) using [^125I-Tyr^4]bombesin as radioligand. Table 2 summarizes the binding affinities of the metallopeptides to GRP receptors of mouse and human origin.

human GRP receptor = target: T2, human GRP receptor (Homo sapiens, UniProt P30550); assay: Competitive binding vs [^125I-Tyr^4] BN, autoradiography of human prostate cancer tissue sections; conditions: displacement of [^125I-Tyr^4] BN, ± SD, number of independent studies in brackets
T2 construct: in vitro autoradiography of sections of human prostate cancer tissue overexpressing GRP receptors; from tissue; host or cells: human prostate cancer tissue sections (patient samples, Institute of Pathology, University of Berne)
Description: as §1, §2

GRP-R [1] = target: T3, GRP-R (Homo sapiens, UniProt P30550); assay: BN receptor subtype profile with universal radioligand [^125I-D-Tyr^6, βAla^11, Phe^13, Nle^14] BN(6–14), human cancerous tissues; conditions: human cancerous tissue, read-out: binding affinity to GRP-R
T3 construct: from tissue
Description: as §1
(§3) The most promising peptide, Cu-BZH7, was also studied with respect to BN receptor subtype profiles using human cancerous tissues shown to express predominantly a single bombesin receptor subtype.

NMB-R [2] = target: T4, NMB-R (Homo sapiens, UniProt P28336); assay: as above; conditions: human cancerous tissue, read-out: binding affinity to NMB-R
T4 construct: from tissue
Description: as §1, §3

BNRS-3 [3] = target: T5, BNRS-3 (Homo sapiens, UniProt P32247); assay: as above; conditions: human cancerous tissue, read-out: binding affinity to BNRS-3
T5 construct: from tissue
T5 sequence (P32247 1-399): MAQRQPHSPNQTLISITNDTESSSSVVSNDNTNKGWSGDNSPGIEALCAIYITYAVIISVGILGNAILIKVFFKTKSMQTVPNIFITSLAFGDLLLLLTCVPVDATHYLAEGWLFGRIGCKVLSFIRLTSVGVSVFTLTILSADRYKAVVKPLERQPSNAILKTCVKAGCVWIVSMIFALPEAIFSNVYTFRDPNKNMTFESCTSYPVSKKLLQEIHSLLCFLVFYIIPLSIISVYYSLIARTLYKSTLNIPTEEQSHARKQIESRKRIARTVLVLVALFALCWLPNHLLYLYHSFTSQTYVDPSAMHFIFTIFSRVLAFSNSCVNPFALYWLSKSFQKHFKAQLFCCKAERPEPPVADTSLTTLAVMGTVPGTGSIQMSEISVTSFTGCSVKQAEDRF
Description: as §1, §3

PC-3 cells = assay: Composition of radioactivity externalized from PC-3 cells (metabolites); assay type: cell-based, human
Description: To identify the composition of the externalized peptides, [^111In]-BZH4 (^111In-DOTA-GABA-D-Tyr-Gln-Trp-Ala-Val-βAla-His-Leu-Nle-NH2) was used as a surrogate peptide with high specific activity, required for metabolic studies. Upon 2 h of internalization and acid wash, the externalized radioactivity after 2 h incubation already consisted of approximately 84% metabolites (^111In-DOTA: 14%; ^111In-DOTA-GABA-D-Tyr-Gln: main peak, 64%; ^111In-DOTA-GABA-D-Tyr-Gln-Trp-Ala-Val-βAla: 6%) and 16% intact peptide.

GRP-R [4] = conditions: read-out: affinity to GRP-R; cited from earlier work
NMB-R [5] = conditions: read-out: affinity to NMB-R; cited from earlier work
BNRS-3 [6] = conditions: read-out: affinity to BNRS-3; cited from earlier work
[7] = 2 h internalization, acid wash, 2 h incubation

T1 sequence (P21729 whole entry): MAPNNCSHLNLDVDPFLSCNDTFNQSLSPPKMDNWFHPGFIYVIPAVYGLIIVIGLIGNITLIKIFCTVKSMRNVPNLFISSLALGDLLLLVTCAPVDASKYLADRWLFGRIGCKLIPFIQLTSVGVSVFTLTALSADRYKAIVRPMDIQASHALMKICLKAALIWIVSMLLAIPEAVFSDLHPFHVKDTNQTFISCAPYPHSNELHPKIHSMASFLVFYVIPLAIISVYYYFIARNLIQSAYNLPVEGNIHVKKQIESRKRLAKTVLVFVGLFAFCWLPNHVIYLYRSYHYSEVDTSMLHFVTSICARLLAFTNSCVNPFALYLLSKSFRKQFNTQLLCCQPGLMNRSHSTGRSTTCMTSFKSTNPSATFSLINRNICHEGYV
T2 sequence (P30550 whole entry): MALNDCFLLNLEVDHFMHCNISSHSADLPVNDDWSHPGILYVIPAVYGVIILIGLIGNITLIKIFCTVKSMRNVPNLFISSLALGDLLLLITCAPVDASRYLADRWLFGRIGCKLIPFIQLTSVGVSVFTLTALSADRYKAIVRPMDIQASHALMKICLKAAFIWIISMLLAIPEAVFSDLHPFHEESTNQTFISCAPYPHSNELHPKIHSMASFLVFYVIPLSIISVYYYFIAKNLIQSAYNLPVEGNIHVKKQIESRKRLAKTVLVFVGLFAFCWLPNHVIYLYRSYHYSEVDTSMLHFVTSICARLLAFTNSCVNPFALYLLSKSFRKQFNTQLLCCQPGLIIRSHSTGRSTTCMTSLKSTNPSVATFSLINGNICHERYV
T4 sequence (P28336 whole entry): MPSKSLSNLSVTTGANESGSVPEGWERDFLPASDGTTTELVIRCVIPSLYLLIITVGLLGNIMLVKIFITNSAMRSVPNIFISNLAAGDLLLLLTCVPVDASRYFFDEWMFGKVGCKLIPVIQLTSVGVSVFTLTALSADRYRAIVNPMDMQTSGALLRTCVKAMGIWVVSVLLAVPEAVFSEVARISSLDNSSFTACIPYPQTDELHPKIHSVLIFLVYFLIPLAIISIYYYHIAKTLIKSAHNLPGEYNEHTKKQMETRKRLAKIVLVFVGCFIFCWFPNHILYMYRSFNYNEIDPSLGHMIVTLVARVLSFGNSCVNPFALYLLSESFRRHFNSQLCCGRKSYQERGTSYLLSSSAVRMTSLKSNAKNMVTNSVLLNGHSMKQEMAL
T3 sequence (P30550 whole entry): as the sequence (P30550 whole entry) above

Molecule: CCCC[C@H](NC(=O)[C@H](CC(C)C)NC(=O)[C@H](Cc1c[nH]cn1)NC(=O)CCNC(=O)[C@@H](NC(=O)[C@H](C)NC(=O)[C@H](Cc1c[nH]c2ccccc12)NC(=O)[C@H](CCC(N)=O)NC(=O)[C@@H](Cc1ccc(O)cc1)NC(=O)CCCNC(=O)CN1CCN(CC(=O)O)CCN(CC(=O)O)CCN(CC(=O)O)CC1)C(C)C)C(N)=O [[Cu^II]-BZH4, Cu^II-DOTA-GABA-[D-Tyr^6, βAla^11, Nle^14] BN(6–14)] ({DOTA-GABA}-[dY]QWAV[βAla]HL[Nle]-NH2)
IC50 (mouse GRP receptor): 1.1 ± 0.3 nM
IC50 (human GRP receptor): 26.3 ± 3.5 nM

IC50 (GRP-R [1]): 0.3 ± 0.07 nM
IC50 (NMB-R [2]): 0.27 ± 0.16 nM
IC50 (BNRS-3 [3]): 1.4 ± 0.6 nM
Molecule: CSCC[C@H](NC(=O)[C@H](CC(C)C)NC(=O)[C@H](Cc1c[nH]cn1)NC(=O)CCNC(=O)[C@@H](NC(=O)[C@H](C)NC(=O)[C@H](Cc1c[nH]c2ccccc12)NC(=O)[C@H](CCC(N)=O)NC(=O)c1ccc(CN2CCCNCCNCCCNCC2)cc1)C(C)C)C(N)=O [[Cu^II]-BZH7, Cu^II-CPTA-[βAla^11] BN(7–14)]

Molecule: CCCC[C@H](NC(=O)[C@H](CC(C)C)NC(=O)[C@H](Cc1c[nH]cn1)NC(=O)CCNC(=O)[C@@H](NC(=O)[C@H](C)NC(=O)[C@H](Cc1c[nH]c2ccccc12)NC(=O)[C@H](CCC(N)=O)NC(=O)[C@@H](Cc1ccc(O)cc1)NC(=O)CCCNC(=O)CN1CCN(CC(=O)O)CCN(CC(=O)O)CCN(CC(=O)O)CC1)C(C)C)C(N)=O [[^111In]-BZH4, ^111In-DOTA-GABA-D-Tyr-Gln-Trp-Ala-Val-βAla-His-Leu-Nle-NH2, metal not drawn] ({DOTA-GABA}-[dY]QWAV[βAla]HL[Nle]-NH2)
externalized radioactivity: ^111In-DOTA (PC-3 cells): 14%
externalized radioactivity: metabolites (total) (PC-3 cells): approximately 84%
externalized radioactivity: ^111In-DOTA-GABA-D-Tyr-Gln (main peak) (PC-3 cells; [7]): 64%
externalized radioactivity: ^111In-DOTA-GABA-D-Tyr-Gln-Trp-Ala-Val-βAla (PC-3 cells; [7]): 6%

Molecule: Cu^II-CPTA -[D-Tyr^6, βAla^11, Nle^14] BN(6–14) [[Cu^II]-BZH5]
IC50 (mouse GRP receptor): 0.6 ± 0.2 nM
IC50 (human GRP receptor): 3.2 ± 0.5 nM

Molecule: Cu^II-CPTA-[D-Tyr^6, βAla^11] BN(6–14) ({CPTA}-[dY]QWAV[βAla]HLM-NH2; also: Cu(II) complex of CPTA) [[Cu^II]-BZH6]
IC50 (mouse GRP receptor): 0.8 ± 0.2 nM
IC50 (human GRP receptor): 1 ± 0.2 nM

IC50 (mouse GRP receptor): 0.8 ± 0.2 nM
IC50 (human GRP receptor): 1.8 ± 0.6 nM
Molecule: Cu^II-CPTA-[Gly^6, βAla^11] BN(6–14) [[Cu^II]-BZH8]

Molecule: DOTA-PEG4-BN(7–14) [[^natGa/^natLu]-DOTA-PESIN]
IC50 (GRP-R [4]): 10 nM
IC50 (NMB-R [5]): 12.5 nM
IC50 (BNRS-3 [6]): > 1000 nM

Molecule: In^III-DOTA-GABA-[D-Tyr^6, βAla^11, Nle^14] BN(6–14) [[In^III]-BZH4]
IC50 (mouse GRP receptor): 0.8 ± 0.4 nM
IC50 (human GRP receptor): 41.5 ± 2.5 nM

Molecule: [(N4-Bzdig)^0] BN (7–14)
IC50 (GRP-R [4]): 0.9 nM
IC50 (NMB-R [5]): 0.65 nM
IC50 (BNRS-3 [6]): 37 nM
